Measurements published in US20050058658A1, “Compositions and methods for immunotherapy of human immunodeficiency virus (HIV)” (priority 2003, published 2005).

How the values were obtained:
[1] = system: experimental autoimmune encephalomyelitis (EAE); assay: Experimental autoimmune encephalomyelitis (EAE) model; assay type: in vivo, SJL mice; conditions: 5 mg s.c. daily for 5 days from day 10
Experimental: This hyposthesis was tested in the experimental autoimmune encephalomyelitis (EAE) model in SJL mice. EAE is induced in mice by immunization with spinal cord derived myelin basic protein which induces a disease in the mice which is very similar to multiple schlerosis (MS) in humans.
Treatments were given daily for 5 days. Linomide is a drug that is known to inhibit EAE and is used as a positive control. […] Severity of EAE is measured by means of the EAE score which starts at 0 for normal and increases to a score of 5 when death occurs. For ethical reasons mice are sacrificed when a score of 4 is reached.

[2] = system: HIV-1IIIB infected CEM-SS cells; assay: p24 antigen ELISA, HIV-1 hollow fiber mouse model; assay type: in vivo; conditions: 150 mg/kg twice daily (300 mg/kg/day), day 7
Experimental: (§1) The HIV-1 hollow fiber mouse model was performed (Hollingshead et al., Antiviral Res. 1995, 28:265-279; Buckheit et al., AIDS Res. Hum. Retroviruses 1997, 13:789-796; Xu et al., Bioorg. Med. Chem. Lett. 1999, 9:133-138; Quenelle et al., Antiviral Res. 1997, 35:123-129). In brief, CEM-SS cells were infected with HIV-1IIIB at a multiplicity of infection (MOI) of 0.0002 and sealed in hollow fibers (2×10^5 cells/fiber) immediately prior to implantation in the mice. Cell control hollow fibers (mock infected) and blank fibers (containing tissue culture medium without cells or virus) were prepared in a similar manner. Hollow fibers were implanted in the subcutaneous and intraperitoneal compartments of the mice (three fibers/compartment/mouse). Mice were treated with the E. tenella protein extract once daily (0.1 mL/10 g body weight) on day 0 (immediately prior to implantation of the fibers) and on days 1-6. Cell control, virus control and blank control mice were dosed similarly using 30 mM Hepes. AZT treated mice were also dosed similarly, however, dosing was performed twice daily at a concentration of 150 mg/kg (300 mg/kg/day). On day seven post implantation, the fibers, blood samples and peritoneal wash were collected from the mice. The viability of the infected CEM-SS cells collected from hollow fibers was determined using an MTT dye conversion assay. Viral reverse transcriptase assay and p24 (capsid) antigen quantification were performed on the hollow fiber cultures as well as the blood samples and the peritoneal wash. Of the three fibers collected from each compartment (intraperitoneal and subcutaneous), one fiber was used for analysis of viral reverse transcriptase and p24, while the remaining two fibers used to analyze cell viability by MTT dye reduction. The experimental treatment groups used in the study included the following: • 1. E. tenella protein extract concentration #1 (virus infected fibers; 7 mice) • 2. E. tenella protein extract concentration #2 (virus infected fibers; 7mice) • 3. E. tenella protein extract concentration #3 (virus infected fibers; 7 mice) • 4. AZT; positive control antiviral drug (virus infected fibers; 7 mice) • 5. Virus Control, no drug treatment (treated with vehicle; virus infected fibers; 7 mice) • 6. Cell Control, no drug treatment (treated with vehicle; mock-infected fibers; 7 mice) • 7. Blank Control, no drug treatment (treated with vehicle; “empty” fibers; 2 mice) MTT Staining for Cell Viability:
Following collection of the fibers from the mice, detection of p24 antigen was performed according to the manufacturer's instructions. Individual fibers were cut open and placed in Eppendorf tubes and cells lysed by the addition of 250 μl of lysis buffer (0.02 M Tris-HCl pH 7.5, 0.05 M NaCl, 0.5% Triton X-100), incubation at room temperature for 30 minutes, vortexing, followed by centrifugation at 14,000 rpm for four minutes in a microcentrifuge. Serum and peritoneal wash samples were clarified by centrifugation without further manipulation prior to analysis. All p24 determinations on the resulting supernatants were performed following serial dilution of the samples to ensure absorbances in the linear range of the standard p24 antigen curve. The standard curve is produced using manufacturer-supplied standards and instructions. Data are obtained by spectrophotometric analysis at 450/570 nm using a Molecular Devices Vmax or SpectraMaxPlus plate reader. Final concentrations are calculated from the optical density values using the Molecular Devices SoftMax Pro software package and expressed in pg/ml p24 antigen.

[3] = system: HIV-1IIIB infected CEM-SS cells; assay: MTT staining for cell viability, HIV-1 hollow fiber mouse model; assay type: in vivo
Experimental: as §1
The viability of cells in the hollow fiber cultures was measured using an MTT dye reduction assay. MTT is a tetrazolium dye that is metabolized by the mitochondria enzymes of metabolically active cells to yield a […] formazan product that can be detected spectrophotometrically. Following collection from the animals, hollow fibers were placed individually into the wells of a 6-well tissue culture plate containing 2 mL of pre-warmed (37° C.) RPMI medium (without phenol red) supplemented with 20% fetal bovine serum. Cells were assayed to viability by adding 180 μL of MTT stock solution (pre-warmed to 37° C.) to each of the wells, followed by incubation for 4 hours at 37° C. in a 5% CO2 atmosphere, removal of medium/MTT solution, and addition of 4 mL of 2.5% Protamine Sulfate (PMS). […] Subsequently, 150 μL of each sample was transferred to a 96 well plate and the optical density of the samples read at 570/650 nm using a Molecular Devices Vmax or SpectraMaxPlus plate reader.

[4] = system: HIV-1IIIB infected CEM-SS cells; assay: Reverse transcriptase assay, HIV-1 hollow fiber mouse model; assay type: in vivo; conditions: 150 mg/kg twice daily (300 mg/kg/day), day 7
Experimental: as §1
A microtiter plate-based reverse transcriptase (RT) reaction was utilized (Buckheit et al., AIDS Research and Human Retroviruses 1991, 7:295-302). Tritiated thymidine triphosphate (^3H-TTP 80 Ci/mmol, NEN) was received in 1:1 dH2O: Ethanol at 1 mCi/mL. Poly rA:oligo dT template:primer (Pharmacia) was prepared as a stock solution by combining 150 μL poly rA (20 mg/mL) with 0.5 mL oligo dT (20 units/mL) and 5.35 mL sterile dH2O followed by aliquoting (1.0 mL) and storage at −20° C. The RT reaction buffer was prepared fresh on a daily basis and consisted of 125 μL 1.0 M EGTA, 125 μL dH2O, 125 μL 20% Triton X100, 50 μL 1.0 M Tris (pH 7.4), 50 μL 1.0 M DTT, and 40 μL 1.0 M MgCl2. The final reaction mixture was prepared by combining 1 part ^3H-TTP, 4 parts dH2O, 2.5 parts poly rA:oligo dT stock and 2.5 parts reaction buffer. Ten microliters of this reaction mixture was placed in a round bottom microtiter plate and 15 μL of supernatant resulting from the lysis of cells collected from the fibers (see the section describing the p24 Antigen ELISA above) or serum or peritoneal wash (serum and peritoneal wash samples were clarified by centrifugation without further manipulation prior to analysis) was added and mixed. The plate was incubated at 37° C. for 60 minutes. […]

[5] = 150 mg/kg twice daily (300 mg/kg/day), day 7
[6] = 150 mg/kg twice daily (300 mg/kg/day), fibers day 7, optical density 570/650 nm

CN(C(=O)c1c(O)c2ccccc2n(C)c1=O)c1ccccc1 [Linomide]
Day 15 EAE Score ± SD [1]: 0.6 ± 1.3

Cc1cn([C@H]2C[C@H](N=[N+]=[N-])[C@@H](CO)O2)c(=O)[nH]c1=O [AZT, 3′-Azido-3′-deoxythymidine]
p24 Intraperitoneal Fiber, % Virus Control, % Value [2]: 99.1% | p24 Intraperitoneal Fiber, Average [2]: 215136 pg/mL | p24 Peritoneal Wash, % Virus Control, % Value [2]: 92.8% | p24 Peritoneal Wash, Average [2]: 109 pg/mL | p24 Serum, % Virus Control, % Value [2]: 37.0% | p24 Serum, Average [2]: 18 pg/mL | p24 Subcutaneous Fiber, % Virus Control, % Value [2]: 110.3% | p24 Subcutaneous Fiber, Average [2]: 312334 pg/mL | MTT Intraperitoneal Fiber, % CPE Reduction, % Value [3, 5]: 0.00% | MTT Subcutaneous Fiber, % CPE Reduction, % Value [3, 5]: 6.83% | MTT Intraperitoneal Fiber, Average [3, 6]: 1.11 | MTT Subcutaneous Fiber, Average [3, 6]: 0.96 | Effect on cytopathic effect (CPE) of HIV-1IIIB on CEM-SS cells ([3]; hollow fiber cultures, all concentrations tested): did not have an effect on this viral endpoint | Reverse Transcriptase Intraperitoneal Fiber, % Virus Control, % Value [4]: 52.8% | Reverse Transcriptase Intraperitoneal Fiber, Average [4]: 6372 CPM | Reverse Transcriptase Peritoneal Wash, % Virus Control, % Value [4]: 25.7% | Reverse Transcriptase Peritoneal Wash, Average [4]: 392 CPM | Reverse Transcriptase Serum, % Virus Control, % Value [4]: 52.8% | Reverse Transcriptase Serum, Average [4]: 403 CPM | Reverse Transcriptase Subcutaneous Fiber, % Virus Control, % Value [4]: 71.9% | Reverse Transcriptase Subcutaneous Fiber, Average [4]: 10178 CPM
